Source: patent US9539223B2, “Methods for treating bacterial infections” (Neoculi Pty Ltd., priority 2013, dated 2017)
≈ marks a conversion by molar mass, not a printed value. Where “and” joins values, the source holds several entries; their conditions need not be identical. Equal entries are not always repeated.

Legend:
[1] = tested on: vancomycin-resistant Enterococcus spp. (VRE); experiment: Minimum inhibitory concentration assay (CLSI), VRE isolates; format: cell-based
Description: Minimum inhibitory concentration tests were performed according to CLSI Standards (CLSI 2008). […] The solutions were then serially diluted across the row, leaving 2 columns for positive and negative controls. A bacterial suspension was prepared by adding fresh colonies obtained from an overnight culture on Sheep Blood Agar (SBA) to a 9.1 g/L saline solution. This suspension was adjusted to a concentration of between 4×10^8 and 5×10^8 CFU/mL. Concentration of the suspension was determined by measuring optical density (OD) using a spectrophotometer at a wavelength of 600 nm where the correct concentration was determined to have an optical density of between 1.00 and 1.20. One milliliter of this suspension was added to 9 mL of saline before being added to all wells, excluding the negative control wells, in 10 μL volumes giving a final concentration of between 4×10^5 and 5×10^5 CFU/mL in each well. The tests were then incubated for 24 hours at 37° C. and then assessed both visually and using OD readings from a microplate reader at a wavelength of 600 nm. These tests were performed in duplicate but repeated if discrepancies were observed.
The minimum inhibitory concentration (MIC) was determined to be the lowest concentration of antibiotic that prevented growth of bacteria both visually and using OD readings. […]

[2] = Visual analysis of solubility in diluents and media; format: physicochemical
S. pneumoniae strain D39 = experiment: Macro-broth dilution time kill studies; format: cell-based, Streptococcus pneumoniae
Description: Bacterial suspensions and working antibiotic stocks were prepared as described above. [For preparing macro-broth dilutions, 20 ml tubes were filled each with 9 mls of 4% LHB:CAMHB. 9 mls of a working antimicrobial stock was diluted 1:2 when added to one of the tubes, and then serial diluted down from a high to low concentration of antimicrobial. 1 ml of S. pneumoniae bacterial suspension was added to the appropriate tubes, including the positive control. […] At every 2-3 hrs during the first 12 hrs of growth and then at 24 hrs and 48 hrs, 50 μL of each bacterial suspension was spread plated onto HBA and incubated at 37° C. with 5% CO2 for 16-24 hrs.]
Cultures were incubated at 37° C. in 5% CO2 with gentle manual tilting every 10 mins for the first 12 hrs. Viable counts from 50 μL aliquots of each concentration were read following incubation at 37° C. in 5% CO2 for 24 hrs. The pH of each sample was measured at specific time points using pH indicator strips. Confluent growth was defined when more than 1000 colonies were counted per plate. A bactericidal effect was defined as a 3-log 10-unit reduction (99.9%) of the original cell suspension determined at 24 hrs for each concentration.

E. faecalis USA01 = experiment: Kill kinetics assay, E. faecalis USA01; format: cell-based, Enterococcus faecalis
Description: S. aureus KC01 and E. faecalis USA01, not determined to be MRSA or VRE, respectively, were grown overnight on Columbia SBA at 37° C. A few colonies of bacteria were then suspended in CAMHB (cation-adjusted Mueller Hinton broth) and adjusted to OD600 of 0.08 to 0.10. The bacterial suspension was diluted 1:10. […] The tubes were incubated at 37° C., with constant shaking. In order to determine the number of viable bacteria present at various time points, a 100 μL aliquot was removed from each tube and diluted. Then, 100 μL of each dilution were spread onto colony count agar, in duplicate, and incubated for 48 h at 37° C. After 24 h the numbers of colonies present on each plate were counted and therefore the number of viable bacteria present in the original suspension enumerated. Plates were re-checked after 48 hours.

S. aureus KC01 and MK01 = experiment: MBC test (CLSI), non-MRSA S. aureus isolates
[3] = tested on: methicillin-resistant and methicillin-susceptible Staphylococcus aureus; experiment: Minimum bactericidal concentration, S. aureus clinical isolates
Description: The MBC was defined as the lowest drug concentration at which 99.95% of the original inoculum was eliminated.

N=C(N/N=C/c1ccc(Cl)cc1)N/N=C/c1ccc(Cl)cc1 [NCL812, 1,2-bis[(E)-(4-chlorophenyl)methylideneamino]guanidine]
MIC50 [1]: 4 µg/mL (≈ 12 µM) | MIC90 [1]: 4 µg/mL (≈ 12 µM) | solubility ([2]; DMSO): soluble | appearance when dissolved ([2]; cation-adjusted Mueller-Hinton II broth (CAMHB)): cloudy solution | visual solubility ([2]; diluent CAMHB): Turbid | visual solubility ([2]; diluent DMSO): Transparent | visual solubility ([2]; diluent PBS): Precipitate | visual solubility ([2]; media 4% LHB:CAMHB): Turbid | visual solubility ([2]; media 10% horse serum-supplemented broth): Precipitate | growth (S. pneumoniae strain D39; 2 μg/ml NCL812): Consistent confluent growth | appeared to be inactivated at (S. pneumoniae strain D39; 4 μg/ml and 8 μg/ml, post-exposure): 11 h | time to eliminating bacterial growth (S. pneumoniae strain D39; between 16 μg/ml and 64 μg/ml NCL812): ≤ 8 h | rise in bacterial numbers (E. faecalis USA01; 32 and 64 μg/mL, until the 6 h time point): ~1 log10 | reduction in CFU/mL compared to the growth control (E. faecalis USA01; 2 h): 2 log10 | reduction in CFU/mL compared to the original bacterial numbers (E. faecalis USA01; 2 h): greater than 1 log10 | bacterial numbers compared to the growth control (E. faecalis USA01; 24 h, all concentrations): increased to almost the same level as the growth control | MBC test: growth on Sheep Blood Agar (S. aureus KC01 and MK01; S. aureus KC01, 2 μg/ml): + | MBC test: growth on Sheep Blood Agar (S. aureus KC01 and MK01; S. aureus KC01, 4 μg/ml): 0 and + | MBC test: growth on Sheep Blood Agar (S. aureus KC01 and MK01; S. aureus KC01, 8 μg/ml): 0 and + | MBC test: growth on Sheep Blood Agar (S. aureus KC01 and MK01; S. aureus KC01, 16 μg/ml): 0 | MBC test: growth on Sheep Blood Agar (S. aureus KC01 and MK01; S. aureus KC01, 32 μg/ml): 0 | MBC test: growth on Sheep Blood Agar (S. aureus KC01 and MK01; S. aureus KC01, 64 μg/ml): 0 | MBC test: growth on Sheep Blood Agar (S. aureus KC01 and MK01; S. aureus KC01, […]): 0 | MBC test: Number of Bacteria Growing after 24 hours per ml of sample (S. aureus KC01 and MK01; S. aureus MK01, 2 μg/ml): 5 CFU/ml | MBC test: growth on Sheep Blood Agar (S. aureus KC01 and MK01; S. aureus MK01, 2 μg/ml): 0 | MBC test: growth on Sheep Blood Agar (S. aureus KC01 and MK01; S. aureus MK01, 4 μg/ml): 0 | MBC test: growth on Sheep Blood Agar (S. aureus KC01 and MK01; S. aureus MK01, 8 μg/ml): 0 | MBC test: growth on Sheep Blood Agar (S. aureus KC01 and MK01; S. aureus MK01, 16 μg/ml): 0 (N) and 0 | MBC test: growth on Sheep Blood Agar (S. aureus KC01 and MK01; S. aureus MK01, 32 μg/ml): 0 (N) and 0 | MBC test: growth on Sheep Blood Agar (S. aureus KC01 and MK01; S. aureus MK01, 64 μg/ml): 0 (N) and 0 | MBC range [3]: 4 to 16 µg/mL | isolates with MBC equivalent to the MIC [3]: 83.33%
